Where two headings read alike, the source gives them in different places.
Legend:
[1] = biological target: T1, protein kinases of the Z-LYTE panel (Homo sapiens, UniProt P43403); assay: SelectScreen Z-LYTE kinase activity assay (SI Table 6); type: biochemical
T1 sequence (P43403 1-619): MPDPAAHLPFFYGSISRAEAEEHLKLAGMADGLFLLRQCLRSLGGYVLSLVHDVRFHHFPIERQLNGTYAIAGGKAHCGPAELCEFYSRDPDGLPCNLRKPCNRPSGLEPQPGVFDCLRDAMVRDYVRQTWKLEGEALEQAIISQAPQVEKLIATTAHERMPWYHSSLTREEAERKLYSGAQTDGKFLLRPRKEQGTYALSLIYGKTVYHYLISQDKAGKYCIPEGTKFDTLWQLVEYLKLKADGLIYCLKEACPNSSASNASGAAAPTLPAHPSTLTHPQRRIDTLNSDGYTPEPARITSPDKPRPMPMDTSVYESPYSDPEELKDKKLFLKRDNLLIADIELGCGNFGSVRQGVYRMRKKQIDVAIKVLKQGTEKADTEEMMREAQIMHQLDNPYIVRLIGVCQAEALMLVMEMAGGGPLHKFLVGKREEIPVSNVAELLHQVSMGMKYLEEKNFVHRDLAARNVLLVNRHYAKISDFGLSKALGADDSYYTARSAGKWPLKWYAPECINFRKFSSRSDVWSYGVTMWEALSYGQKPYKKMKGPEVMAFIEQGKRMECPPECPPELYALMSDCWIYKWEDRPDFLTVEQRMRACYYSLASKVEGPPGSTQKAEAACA
Procedure, shortened: (§1)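 A counterscreen of 133 protein and 7 lipid kinases was run with one compound concentration, 1 μM 1938, in SelectScreen Adapta, Lantha or Z-LYTE assays.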

[2] = biological target: T2, protein kinases of the Z-LYTE panel (Homo sapiens, UniProt Q13976); assay: as above; type: biochemical
T2 sequence (Q13976 1-671): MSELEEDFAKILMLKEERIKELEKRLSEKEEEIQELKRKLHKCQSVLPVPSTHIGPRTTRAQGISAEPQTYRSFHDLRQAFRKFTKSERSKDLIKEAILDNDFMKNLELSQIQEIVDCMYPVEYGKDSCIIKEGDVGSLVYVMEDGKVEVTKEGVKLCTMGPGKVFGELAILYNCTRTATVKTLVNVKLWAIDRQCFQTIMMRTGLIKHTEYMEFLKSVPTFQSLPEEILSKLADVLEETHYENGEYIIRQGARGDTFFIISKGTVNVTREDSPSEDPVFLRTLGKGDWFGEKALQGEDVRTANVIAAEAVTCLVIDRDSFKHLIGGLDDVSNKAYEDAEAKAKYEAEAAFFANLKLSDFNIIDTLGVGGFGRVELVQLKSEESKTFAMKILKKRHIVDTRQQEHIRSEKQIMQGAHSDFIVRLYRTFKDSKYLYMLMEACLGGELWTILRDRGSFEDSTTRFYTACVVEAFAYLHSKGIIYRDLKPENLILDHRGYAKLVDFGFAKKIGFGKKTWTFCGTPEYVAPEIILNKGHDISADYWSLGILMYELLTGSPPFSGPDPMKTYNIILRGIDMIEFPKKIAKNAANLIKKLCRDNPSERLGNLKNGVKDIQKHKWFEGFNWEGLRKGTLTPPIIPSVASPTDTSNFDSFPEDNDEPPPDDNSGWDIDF
Procedure, shortened: as §1

[3] = biological target: T3, mTORC1 (mTOR/RAPTOR/LST8 complex) (Homo sapiens, UniProt P42345); assay: mTORC1 in vitro kinase assay (Phos-tag gel); type: biochemical; details: 200 μM 1938
T3 construct: made in house
Protocol: 133 protein kinases and 7 lipid kinases were counterscreened, with 1938 used at 1 μM, using the Adapta, Lantha and Z-LYTE assays (SelectScreen Kinase Profiling Service; Thermofisher – experimental details of these assays can be found here: https://www.thermofisher.com/uk/en/home/industrial/pharma-biopharma/drug-discovery-development/target-and-lead-identification-and-validation/kinasebiology/kinase-activity-assays.html. The tree represention in KinMap[59] generated courtesy of Cell Signaling Technology, Inc. (www.cellsignal.com). mTORC1 (mTOR/RAPTOR/LST8) protein complex and ATM kinase and substrates were produced as previously described[57],[60]. Screening of 1938 was conducted using SuperSep Phos-Tag 50 μmol/l 100 x 100 x 6.6 mm 17-well (192-18001/199-18011) gels. For ATM assays, 100 nM ATM was incubated for 30 min at 30°C with 5 μM GST-p53 and 1 mM ATP, in the absence or presence of 200 μM 1938 in ATM Kinase Buffer (50 mM HEPES pH 7.5, 100 mM NaCl, 10% glycerol, 2 mM […], 5 mM MgCl2). As a positive control for ATM activation, the same reaction was carried out with 100 nM ATM/5 μM GST-p53/1 mM ATP in the presence of 100 nM Mre11-Rad50-Nbs1 (MRN) complex, a known activator of ATM[61]. […] Gels were then stained using InstantBlue™ Coomassie, and quantified using BioRad Image Lab Software. […]

[4] = test system: PI3Kα-KO MEFs; assay: CellTiter-Glo cell assay, PI3Kα-KO MEFs; type: cell-based, mouse; details: 24h
Protocol: MEFs were seeded at 5000 cells per well in 96-well plates in DMEM supplemented with 10% FBS and 1% P/S, and allowed to attach overnight. The next day, cells were serum starved for 4 h prior to compound treatment in fresh serum-free DMEM. Compounds solubilised in DMSO were diluted 1:2 in a 12-point concentration response curve in DMSO. Intermediate plates were prepared by transferring 4 μl of compounds in DMSO into 96 μl of serum-free DMEM media. This was then used to treat cell plates by transferring 12.5 μl of solution from the intermediate plate into 87.5 μl of serum-free DMEM in the cell plates. […] Cell plates were incubated for 24 h, 48 h or 72 h at 37°C, 5% CO2, followed by determination of cell survival using the CellTiter-Glo® reagent according to manufacturer’s instructions (Promega #G7571). Endpoint luminescence was measured using CLARIOstar (BMG). Compound data were analyzed using GraphPad Prism 8.

## CCN1CCN(c2ccc(Nc3cc(Nc4cccc5c4N(C(C)=O)CC5)ccn3)cc2)CC1 [Compound 1938]
[1]; read-out: % Inhibition Point 1
  inhibition at 1 µM: 3%
[1]; read-out: % Inhibition Point 2
  inhibition at 1 µM: -4.63%
[1]; read-out: % Inhibition mean
  inhibition at 1 µM: -0.814%
[2]; read-out: % Inhibition Point 1
  inhibition at 1 µM: 4.68%
[2]; read-out: % Inhibition Point 2
  inhibition at 1 µM: -0.193%
[2]; read-out: % Inhibition mean
  inhibition at 1 µM: 2.24%
[3]
  effect on mTORC1 activity: did not affect the activity
[4]
  concentrations with a decrease in ATP levels (PI3Kα-independent effects): > 7.5 µM

Source: PMC7614683, “A small molecule PI3Kα activator for cardioprotection and neuroregeneration” (Nature, 2023)
